Measurements published in ChEMBL document CHEMBL3044541, “Control of crown rot-causing fungal pathogens of banana by inorganic salts and a surfactant” (Crop Prot, 2007).
Activity calls are given as the source filed them. The rule behind the calls is not given here.

What was measured:
Thielaviopsis paradoxa [1] = assay: Antifungal activity against Ceratocystis paradoxa assessed as inhibition of conidium germination at 5 g/l incubated for 15 min followed by compound washout measured after 2 days by microscopic analysis in absence of surfactant APSA 80; type: functional, organism-based
Colletotrichum musae [2] = assay: Antifungal activity against Colletotrichum musae assessed as inhibition of conidium germination at 5 g/l incubated for 15 min followed by compound washout measured after 2 days by microscopic analysis in absence of surfactant APSA 80; type: functional, organism-based
Lasiodiplodia theobromae [3] = assay: Antifungal activity against Lasiodiplodia theobromae assessed as inhibition of conidium germination at 5 g/l incubated for 15 min followed by compound washout measured after 2 days by microscopic analysis in absence of surfactant APSA 80; type: functional, organism-based
Fusarium verticillioides [4] = assay: Growth inhibition of Fusarium verticillioides assessed as inhibition of mycelial growth up to 160 g/l incubated for 15 min followed by compound washout measured after 7 days in absence of surfactant APSA 80; type: functional
Fusarium verticillioides [5] = assay: Growth inhibition of Fusarium verticillioides assessed as inhibition of mycelial growth up to 160 g/l incubated for 15 min followed by compound washout measured after 7 days in presence of surfactant APSA 80; type: functional, organism-based
Colletotrichum musae [6] = assay: Growth inhibition of Colletotrichum musae assessed as inhibition of mycelial growth up to 160 g/l incubated for 15 min followed by compound washout measured after 7 days in absence of surfactant APSA 80; type: functional
Colletotrichum musae [7] = assay: Growth inhibition of Colletotrichum musae assessed as inhibition of mycelial growth up to 160 g/l incubated for 15 min followed by compound washout measured after 7 days in presence of surfactant APSA 80; type: functional, organism-based
Thielaviopsis paradoxa [8] = assay: Growth inhibition of Ceratocystis paradoxa assessed as inhibition of mycelial growth up to 160 g/l incubated for 15 min followed by compound washout measured after 7 days in absence of surfactant APSA 80; type: functional, organism-based
Thielaviopsis paradoxa [9] = assay: Growth inhibition of Ceratocystis paradoxa assessed as inhibition of mycelial growth up to 160 g/l incubated for 15 min followed by compound washout measured after 7 days in presence of surfactant APSA 80; type: functional
Colletotrichum musae [10] = assay: Antifungal activity against Colletotrichum musae assessed as inhibition of conidium germination at 5 g/l incubated for 15 min followed by compound washout measured after 7 days by microscopic analysis in presence of surfactant APSA 80; type: functional, organism-based
Thielaviopsis paradoxa [11] = assay: Antifungal activity against Ceratocystis paradoxa assessed as inhibition of conidium germination at 5 g/l incubated for 15 min followed by compound washout measured after 7 days by microscopic analysis in presence of surfactant APSA 80; type: functional, organism-based
Lasiodiplodia theobromae [12] = assay: Antifungal activity against Lasiodiplodia theobromae assessed as inhibition of conidium germination at 5 g/l incubated for 15 min followed by compound washout measured after 7 days by microscopic analysis in presence of surfactant APSA 80; type: functional, organism-based
Fusarium verticillioides [13] = assay: Antifungal activity against Fusarium verticillioides assessed as inhibition of conidium germination at 5 g/l incubated for 15 min followed by compound washout measured after 2 days by microscopic analysis in absence of surfactant APSA 80; type: functional, organism-based
Fusarium verticillioides [14] = assay: Antifungal activity against Fusarium verticillioides assessed as inhibition of conidium germination at 5 g/l incubated for 15 min followed by compound washout measured after 7 days by microscopic analysis in presence of surfactant APSA 80; type: functional, organism-based
Colletotrichum musae [15] = assay: Growth inhibition of Colletotrichum musae assessed as concentration required for inhibition of mycelial growth incubated for 15 min followed by compound washout measured after 7 days in presence of surfactant APSA 80; type: functional
Lasiodiplodia theobromae [16] = assay: Growth inhibition of Lasiodiplodia theobromae assessed as concentration required for inhibition of mycelial growth incubated for 15 min followed by compound washout measured after 7 days in absence of surfactant APSA 80; type: functional
Lasiodiplodia theobromae [17] = assay: Growth inhibition of Lasiodiplodia theobromae assessed as concentration required for inhibition of mycelial growth incubated for 15 min followed by compound washout measured after 7 days in presence of surfactant APSA 80; type: functional
Musa acuminata AAA Group [18] = assay: Phytotoxicity against Musa acuminata AAA Group (Cavendish banana) assessed as skin burn incubated for 15 min followed by compound washout measured after 1 to 3 weeks in presence of surfactant APSA 80 relative to control; type: organism-based; settings: in vivo
Musa acuminata AAA Group [19] = assay: Phytotoxicity against Musa acuminata AAA Group (Cavendish banana) assessed as discoloration incubated for 15 min followed by compound washout measured after 1 to 3 weeks in presence of surfactant APSA 80 relative to control; type: organism-based; settings: in vivo
Fusarium verticillioides [20] = assay: Antifungal activity against Fusarium verticillioides infected Cavendish banana fruit assessed as reduction in crown rot incubated for 15 min followed by compound washout measured after 3 weeks in presence of surfactant APSA 80 relative to control; type: functional; design: scale not given: the % may be the effect or the level left; settings: pooled result: one value given for 4 cell lines, strains, targets or settings
Fusarium verticillioides [21] = assay: Antifungal activity against Fusarium verticillioides infected Cavendish banana fruit assessed as reduction in crown rot incubated for 15 min followed by compound washout measured after 3 weeks in absence of surfactant APSA 80 relative to control; type: functional; design: scale not given: the % may be the effect or the level left; settings: pooled result: one value given for 4 cell lines, strains, targets or settings
Fusarium verticillioides [22] = assay: Antifungal activity against Fusarium verticillioides infected Cavendish banana fruit assessed as reduction in crown rot incubated for 15 min followed by compound washout measured after 2 weeks in presence of surfactant APSA 80 relative to control; type: functional; design: scale not given: the % may be the effect or the level left
Colletotrichum musae [23] = assay: Antifungal activity against Colletotrichum musae infected Cavendish banana fruit assessed as reduction in crown rot incubated for 15 min followed by compound washout measured after 2 weeks in presence of surfactant APSA 80 relative to control; type: functional; design: scale not given: the % may be the effect or the level left
Thielaviopsis paradoxa [24] = assay: Antifungal activity against Ceratocystis paradoxa infected Cavendish banana fruit assessed as reduction in crown rot incubated for 15 min followed by compound washout measured after 2 weeks in presence of surfactant APSA 80 relative to control; type: functional; design: scale not given: the % may be the effect or the level left
Lasiodiplodia theobromae [25] = assay: Antifungal activity against Lasiodiplodia theobromae infected Cavendish banana fruit assessed as reduction in crown rot incubated for 15 min followed by compound washout measured after 2 weeks in presence of surfactant APSA 80 relative to control; type: functional; design: scale not given: the % may be the effect or the level left
Fusarium verticillioides [26] = assay: Antifungal activity against Fusarium verticillioides infected Cavendish banana fruit assessed as reduction in crown rot incubated for 15 min followed by compound washout measured after 2 weeks in absence of surfactant APSA 80 relative to control; type: functional; design: scale not given: the % may be the effect or the level left
Colletotrichum musae [27] = assay: Antifungal activity against Colletotrichum musae infected Cavendish banana fruit assessed as reduction in crown rot incubated for 15 min followed by compound washout measured after 2 weeks in absence of surfactant APSA 80 relative to control; type: functional; design: scale not given: the % may be the effect or the level left
Thielaviopsis paradoxa [28] = assay: Antifungal activity against Ceratocystis paradoxa infected Cavendish banana fruit assessed as reduction in crown rot incubated for 15 min followed by compound washout measured after 2 weeks in absence of surfactant APSA 80 relative to control; type: functional; design: scale not given: the % may be the effect or the level left
Lasiodiplodia theobromae [29] = assay: Antifungal activity against Lasiodiplodia theobromae infected Cavendish banana fruit assessed as reduction in crown rot incubated for 15 min followed by compound washout measured after 2 weeks in absence of surfactant APSA 80 relative to control; type: functional; design: scale not given: the % may be the effect or the level left
Fusarium verticillioides [30] = assay: Antifungal activity against Fusarium verticillioides infected Cavendish banana fruit assessed as reduction in crown rot incubated for 15 min followed by compound washout measured after 1 week in presence of surfactant APSA 80 relative to control; type: functional; design: scale not given: the % may be the effect or the level left
Colletotrichum musae [31] = assay: Antifungal activity against Colletotrichum musae infected Cavendish banana fruit assessed as reduction in crown rot incubated for 15 min followed by compound washout measured after 1 week in presence of surfactant APSA 80 relative to control; type: functional; design: scale not given: the % may be the effect or the level left
Thielaviopsis paradoxa [32] = assay: Antifungal activity against Ceratocystis paradoxa infected Cavendish banana fruit assessed as reduction in crown rot incubated for 15 min followed by compound washout measured after 1 week in presence of surfactant APSA 80 relative to control; type: functional; design: scale not given: the % may be the effect or the level left
Lasiodiplodia theobromae [33] = assay: Antifungal activity against Lasiodiplodia theobromae infected Cavendish banana fruit assessed as reduction in crown rot incubated for 15 min followed by compound washout measured after 1 week in presence of surfactant APSA 80 relative to control; type: functional; design: scale not given: the % may be the effect or the level left
Fusarium verticillioides [34] = assay: Antifungal activity against Fusarium verticillioides infected Cavendish banana fruit assessed as reduction in crown rot incubated for 15 min followed by compound washout measured after 1 week in absence of surfactant APSA 80 relative to control; type: functional; design: scale not given: the % may be the effect or the level left
Colletotrichum musae [35] = assay: Antifungal activity against Colletotrichum musae infected Cavendish banana fruit assessed as reduction in crown rot incubated for 15 min followed by compound washout measured after 1 week in absence of surfactant APSA 80 relative to control; type: functional; design: scale not given: the % may be the effect or the level left
Thielaviopsis paradoxa [36] = assay: Antifungal activity against Ceratocystis paradoxa infected Cavendish banana fruit assessed as reduction in crown rot incubated for 15 min followed by compound washout measured after 1 week in absence of surfactant APSA 80 relative to control; type: functional; design: scale not given: the % may be the effect or the level left
Lasiodiplodia theobromae [37] = assay: Antifungal activity against Lasiodiplodia theobromae infected Cavendish banana fruit assessed as reduction in crown rot incubated for 15 min followed by compound washout measured after 1 week in absence of surfactant APSA 80 relative to control; type: functional; design: scale not given: the % may be the effect or the level left
Fusarium verticillioides [38] = assay: Antifungal activity against Fusarium verticillioides assessed as reduction in colony diameter at 10 to 160 g/l incubated for 15 min followed by compound washout measured after 7 days in absence of surfactant APSA 80 relative to control; type: functional; design: scale not given: the % may be the effect or the level left
Colletotrichum musae [39] = assay: Antifungal activity against Colletotrichum musae assessed as reduction in colony diameter at 10 to 160 g/l incubated for 15 min followed by compound washout measured after 7 days in absence of surfactant APSA 80 relative to control; type: functional; design: scale not given: the % may be the effect or the level left
Thielaviopsis paradoxa [40] = assay: Antifungal activity against Ceratocystis paradoxa assessed as reduction in colony diameter at 10 to 160 g/l incubated for 15 min followed by compound washout measured after 7 days in absence of surfactant APSA 80 relative to control; type: functional; design: scale not given: the % may be the effect or the level left
Lasiodiplodia theobromae [41] = assay: Antifungal activity against Lasiodiplodia theobromae assessed as reduction in colony diameter at 10 to 160 g/l incubated for 15 min followed by compound washout measured after 7 days in absence of surfactant APSA 80 relative to control; type: functional; design: scale not given: the % may be the effect or the level left
Fusarium verticillioides [42] = assay: Antifungal activity against Fusarium verticillioides assessed as reduction in colony diameter at 10 to 160 g/l incubated for 15 min followed by compound washout measured after 7 days in presence of surfactant APSA 80 relative to control; type: functional; design: scale not given: the % may be the effect or the level left
Colletotrichum musae [43] = assay: Antifungal activity against Colletotrichum musae assessed as reduction in colony diameter at 10 to 160 g/l incubated for 15 min followed by compound washout measured after 7 days in presence of surfactant APSA 80 relative to control; type: functional; design: scale not given: the % may be the effect or the level left
Thielaviopsis paradoxa [44] = assay: Antifungal activity against Ceratocystis paradoxa assessed as reduction in colony diameter at 10 to 160 g/l incubated for 15 min followed by compound washout measured after 7 days in presence of surfactant APSA 80 relative to control; type: functional; design: scale not given: the % may be the effect or the level left
Lasiodiplodia theobromae [45] = assay: Antifungal activity against Lasiodiplodia theobromae assessed as reduction in colony diameter at 10 to 160 g/l incubated for 15 min followed by compound washout measured after 7 days in presence of surfactant APSA 80 relative to control; type: functional; design: scale not given: the % may be the effect or the level left

O=C([O-])O.[Na+]
inhibition (Thielaviopsis paradoxa [1]): Active
inhibition (Colletotrichum musae [2]): Active
inhibition (Lasiodiplodia theobromae [3]): Active
Activity (Fusarium verticillioides [4]): inactive
Activity (Fusarium verticillioides [5]): inactive
Activity (Colletotrichum musae [6]): inactive
Activity (Colletotrichum musae [7]): inactive
Activity (Thielaviopsis paradoxa [8]): inactive
Activity (Thielaviopsis paradoxa [9]): inactive
inhibition (Colletotrichum musae [10]): Active
inhibition (Thielaviopsis paradoxa [11]): Active
inhibition (Lasiodiplodia theobromae [12]): Active
inhibition (Fusarium verticillioides [13]): Active
inhibition (Fusarium verticillioides [14]): Active

O=C([O-])[O-].[Na+].[Na+] [SODIUM CARBONATE]
Activity (Colletotrichum musae [15]): 80 g/L
Activity (Lasiodiplodia theobromae [16]): 150 g/L
Activity (Lasiodiplodia theobromae [17]): 40 g/L
Activity (Musa acuminata AAA Group [18]): Toxic
Activity (Musa acuminata AAA Group [19]): Toxic
Activity (Fusarium verticillioides [20]): 65%
Activity (Fusarium verticillioides [21]): 35%
Activity (Fusarium verticillioides [22]): 25%
Activity (Colletotrichum musae [23]): 25%
Activity (Thielaviopsis paradoxa [24]): 25%
Activity (Lasiodiplodia theobromae [25]): 25%
Activity (Fusarium verticillioides [26]): 0%
Activity (Colletotrichum musae [27]): 0%
Activity (Thielaviopsis paradoxa [28]): 0%
Activity (Lasiodiplodia theobromae [29]): 0%
Activity (Fusarium verticillioides [30]): 0%
Activity (Colletotrichum musae [31]): 0%
Activity (Thielaviopsis paradoxa [32]): 0%
Activity (Lasiodiplodia theobromae [33]): 0%
Activity (Fusarium verticillioides [34]): 0%
Activity (Colletotrichum musae [35]): 0%
Activity (Thielaviopsis paradoxa [36]): 0%
Activity (Lasiodiplodia theobromae [37]): 0%
Activity (Fusarium verticillioides [38]): 29%
Activity (Colletotrichum musae [39]): 40%
Activity (Thielaviopsis paradoxa [40]): 63%
Activity (Lasiodiplodia theobromae [41]): 54%
Activity (Fusarium verticillioides [42]): 75%
Activity (Colletotrichum musae [43]): 87%
Activity (Thielaviopsis paradoxa [44]): 85%
Activity (Lasiodiplodia theobromae [45]): 91%
